Results published in US20240383887A1, “DEUTERATED IRAK DEGRADERS AND USES THEREOF” (Kymera Therapeutics, Inc., priority 2021, published 2024).
pIC50: −log10 of the molar value.

Legend:
IRAK4 = target: T1, IRAK4 (Homo sapiens, UniProt Q9NWZ3); assay: IRAK4 MSD degradation in OCI-LY10; format: cell-based; conditions: OCI-LY10 cells, 24 hrs, Meso Scale Discovery; read-out: IRAK4 MSD degradation in OCI-LY10 at 24 hrs: Average external-Abs DC50
T1 construct: endogenous in cells; host or cells: OCI-LY10
T1 sequence (Q9NWZ3 1-460): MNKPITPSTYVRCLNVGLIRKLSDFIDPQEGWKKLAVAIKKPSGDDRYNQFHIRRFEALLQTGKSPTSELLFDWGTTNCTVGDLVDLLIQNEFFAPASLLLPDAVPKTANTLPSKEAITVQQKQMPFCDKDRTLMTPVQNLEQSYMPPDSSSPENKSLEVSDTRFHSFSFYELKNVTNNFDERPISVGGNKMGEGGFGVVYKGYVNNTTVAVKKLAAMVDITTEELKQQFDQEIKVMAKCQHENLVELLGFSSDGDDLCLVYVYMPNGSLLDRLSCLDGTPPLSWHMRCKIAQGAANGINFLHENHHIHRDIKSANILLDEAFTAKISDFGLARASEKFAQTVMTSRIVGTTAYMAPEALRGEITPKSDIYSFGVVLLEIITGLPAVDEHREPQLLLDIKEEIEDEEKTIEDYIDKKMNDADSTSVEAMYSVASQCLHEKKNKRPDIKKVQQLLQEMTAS
Procedure: Degradation of IRAK4 in OCI-LY10 was quantitatively measured using Meso Scale Discovery technology. OCI-LY10 cells were seeded in 96-well plates (Corning 3799) with a density of 300,000 cells per well in 100 μL fresh media. Compounds were then added to the assay plates with a final top concentration of 1 to 10 μM in a 1:3 dilution series with total of 8 doses. The assay plates were then incubated for 4 to 24 hours at 37 under 5% CO2. The assay plates were then centrifuged for 5 minutes and the cell pellets were treated with 100 μL/well RIPA lysis buffer (Boston BioProducts BP-115D) with proteinase inhibitors. To prepare MSD assay plates (Meso Scale Discovery Catalog number L15XA-3), the plates were coated with 2 μg/mL capture antibody (mouse Anti-IRAK4 antibody [2H9], ab119942) in PBS, at 40 μL/well. […] The assay plates were then incubated at room temperature for 1 hour, washed 3 times with 150 μL/well TBST buffer, and 150 μL/well MSD reading buffer (Meso Scale Discovery catalog number R92TC-2) was added. The plates were then analyzed by a MSD reader (Meso Scale Discovery, Model Quick Plex SQ 120). The data was then analyzed by software Prism 7.0 from GraphPad and the dose-depended IRAK4 degradation were fit using a three-parameter logistic equation to calculate DC50. […]

OCI-LY10 cells = assay: CTG Cell Viability Assay with OCI-LY10; format: cell-based; conditions: Homo sapiens, 96 h, 4 days, CellTiter-Glo, read-out: CTG Cell Viability in OCI-LY10: Average external DC50
Procedure: Compound-mediated viability effect on OCI-LY10 or TMD8 was quantitatively determined using the CellTiter-Glo® Luminescent Cell Viability Assay kit from Promega (Catalog number G7570) following manufacturer's recommended procedures. Briefly, OCI-LY10 cells were seeded into 384 well plates (Grenier Bio-One, Catalog number 781080) with a density of 10,000 cells per well. Compounds were then added to the assay plate with final top concentration of 10 μM and 1:3 dilution series with total of 9 doses. The final DMSO concentration was normalized to 0.2%. The assay plates were incubated at 37° C. for 4 days under 5% CO2. Then the assay plate was equilibrated at room temperature for 10 minutes. To determine cell viability, 30 μL Cell Titer Glo reagent was added to each well and the assay plate was centrifuged at 1000 rpm for 30 second, incubated at room temperature for 10 min, and analyzed by detecting the luminescence using a multimode plate reader (EnVision 2105, PerkinElmer). The data was then analyzed by software Prism 7.0 from GraphPad and the dose response curves were fit using a three-parameter logistic equation to calculate IC50.
The letter codes for IRAK4 IC50 include: A (<0.05 μM), B (0.05-0.1 μM), C (0.1-0.5 μM), D (0.5-1.0 μM), and E (>1.0 μM).

SMILES: [2H]C([2H])([2H])C(O)(c1cc2nc([C@H]3CC[C@H](CN4CC5(CC(CCNc6cccc7c6C(=O)N(C6CCC(=O)NC6=O)C7=O)C5)C4)CC3)sc2cc1NC(=O)c1cccc(C(F)(F)F)n1)C([2H])([2H])[2H] (some centres unmarked) [Compound I-1, N-[2-[4-[[6-[2-[[2-(2,6-dioxo-3-piperidyl)-1,3-dioxo-isoindolin-4-yl]amino]ethyl]-2-azaspiro[3.3]heptan-2-yl]methyl]cyclohexyl]-5-[2,2,2-trideuterio-1-hydroxy-1-(trideuteriomethyl)ethyl]-1,3-benzothiazol-6-yl]-6-(trifluoromethyl)pyridine-2-carboxamide]
- DC50 (IRAK4): < 0.01 µM
- pIC50 (OCI-LY10 cells): 6.30 to 7.00
